According to ChEMBL document CHEMBL5584308, “Total Synthesis and Anti-inflammatory Activity of Asperjinone and Asperimide C” (J Nat Prod, 2024):
Activity calls are given as the source filed them. No cut-off for these calls is given here.

Assays:
RPTEC [1] = assay: Antiinflammatory activity in LPS-induced human RPTEC cells assessed as downregulation of TNFalpha gene expression at 26 uM incubated for 24 hrs by qPCR analysis relative to control; type: functional
RPTEC [2] = assay: Antiinflammatory activity in LPS-induced human RPTEC cells assessed as decrease in IL-1beta gene expression at 26 uM incubated for 24 hrs by qPCR analysis relative to control; type: functional; set-up: scale not given: the % may be the effect or the level left
RPTEC [3] = assay: Effect on IL-6 gene expression in human RPTEC cells at 26 uM incubated for 24 hrs by qPCR analysis; type: functional, cell-based
RPTEC [4] = assay: Effect on IL-1beta gene expression in human RPTEC cells at 26 uM incubated for 24 hrs by qPCR analysis; type: functional, cell-based
RPTEC [5] = assay: Effect on iNOS gene expression in human RPTEC cells at 26 uM incubated for 24 hrs by qPCR analysis; type: functional, cell-based
RPTEC [6] = assay: Cytotoxicity against human RPTEC cells assessed as reduction in cell viability at 26 uM incubated for 24 hrs in presence of LPS by MTT assay; type: toxicity, cell-based
RPTEC [7] = assay: Antiinflammatory activity against LPS-induced human RPTEC cells assessed as reduction in iNOS gene expression at 26 uM incubated for 24 hrs by qPCR analysis relative to control; type: functional; set-up: scale not given: the % may be the effect or the level left
RPTEC [8] = assay: Antiinflammatory activity against LPS-induced human RPTEC cells assessed as reduction in COX-2 gene expression at 26 uM incubated for 24 hrs by qPCR analysis relative to control; type: functional; set-up: scale not given: the % may be the effect or the level left
RPTEC [9] = assay: Antiinflammatory activity against LPS-induced human RPTEC cells assessed as reduction in nitrite level at 26 uM incubated for 24 hrs by microplate reader analysis relative to control; type: functional; set-up: scale not given: the % may be the effect or the level left
RPTEC [10] = assay: Antiinflammatory activity in LPS-induced human RPTEC cells assessed as decrease in IL6 gene expression at 26 uM incubated for 24 hrs by qPCR analysis relative to control; type: functional; set-up: scale not given: the % may be the effect or the level left
RPTEC [11] = assay: Effect on total NO level in human RPTEC cells at 26 uM incubated for 24 hrs by microplate reader analysis; type: functional, cell-based
RPTEC [12] = assay: Cytotoxicity against human RPTEC cells assessed as reduction in cell viability at 26 uM incubated for 24 hrs in absence of LPS by MTT assay; type: toxicity, cell-based
RPTEC [13] = assay: Effect on nitrate level in LPS-induced human RPTEC cells at 26 uM incubated for 24 hrs by microplate reader analysis; type: functional, cell-based
RPTEC [14] = assay: Effect on nitrite level in human RPTEC cells at 26 uM incubated for 24 hrs by microplate reader analysis; type: functional, cell-based
RPTEC [15] = assay: Antiinflammatory activity against LPS-induced human RPTEC cells assessed as reduction in total NO level at 26 uM incubated for 24 hrs by microplate reader analysis relative to control; type: functional; set-up: scale not given: the % may be the effect or the level left
RPTEC [16] = assay: Effect on nitrate level in human RPTEC cells at 26 uM incubated for 24 hrs by microplate reader analysis; type: functional, cell-based
RPTEC [17] = assay: Effect on COX-2 gene expression in human RPTEC cells at 26 uM incubated for 24 hrs by qPCR analysis; type: functional, cell-based
[18] = Downregulation of IL-1beta gene expression in human RPTEC cells at 26 uM incubated for 24 hrs by qPCR analysis relative to control; type: functional
[19] = Downregulation of COX-2 gene expression in human RPTEC cells at 26 uM incubated for 24 hrs by qPCR analysis relative to control; type: functional
[20] = Downregulation of TNF-alpha gene expression in human RPTEC cells at 26 uM incubated for 24 hrs by qPCR analysis relative to control; type: functional
RPTEC [21] = assay: Upregulation of IL-1beta gene expression in human RPTEC cells at 26 uM incubated for 24 hrs by qPCR analysis; type: functional, cell-based
RPTEC [22] = assay: Upregulation of IL-6 gene expression in human RPTEC cells at 26 uM incubated for 24 hrs by qPCR analysis; type: functional, cell-based
RPTEC [23] = assay: Upregulation of COX-2 gene expression in human RPTEC cells at 26 uM incubated for 24 hrs by qPCR analysis; type: functional, cell-based
RPTEC [24] = assay: Antiinflammatory activity against LPS-induced human RPTEC cells assessed as reduction in iNOS gene expression at 28 uM incubated for 24 hrs by qPCR analysis relative to control; type: functional; set-up: scale not given: the % may be the effect or the level left
RPTEC [25] = assay: Antiinflammatory activity against LPS-induced human RPTEC cells assessed as reduction in COX-2 gene expression at 28 uM incubated for 24 hrs by qPCR analysis relative to control; type: functional; set-up: scale not given: the % may be the effect or the level left
RPTEC [26] = assay: Antiinflammatory activity in LPS-induced human RPTEC cells assessed as downregulation of TNFalpha gene expression at 28 uM incubated for 24 hrs by qPCR analysis relative to control; type: functional
RPTEC [27] = assay: Antiinflammatory activity against LPS-induced human RPTEC cells assessed as reduction in nitrite level at 28 uM incubated for 24 hrs by microplate reader analysis relative to control; type: functional; set-up: scale not given: the % may be the effect or the level left
RAW264.7 = assay: Inhibition of NO production in LPS-induced mouse RAW264.7 cells incubated for 24 hrs by absorbance based assay; type: functional, cell-based; details: RAW264.7, 24 h
RPTEC [28] = assay: Antiinflammatory activity in LPS-induced human RPTEC cells assessed as decrease in IL6 gene expression at 28 uM incubated for 24 hrs by qPCR analysis relative to control; type: functional; set-up: scale not given: the % may be the effect or the level left
RPTEC [29] = assay: Effect on nitrate level in LPS-induced human RPTEC cells at 28 uM incubated for 24 hrs by microplate reader analysis; type: functional, cell-based
RPTEC [30] = assay: Effect on COX-2 gene expression in human RPTEC cells at 28 uM incubated for 24 hrs by qPCR analysis; type: functional, cell-based
[31] = Downregulation of TNF-alpha gene expression in human RPTEC cells at 28 uM incubated for 24 hrs by qPCR analysis relative to control; type: functional
RPTEC [32] = assay: Antiinflammatory activity in LPS-induced human RPTEC cells assessed as decrease in IL-1beta gene expression at 28 uM incubated for 24 hrs by qPCR analysis relative to control; type: functional; set-up: scale not given: the % may be the effect or the level left

IC50 (RAW264.7) [µM] | Structure (SMILES) | Activity (RPTEC [1]) [%] | Activity (RPTEC [2]) [%] | Activity (RPTEC [3]) | Activity (RPTEC [4]) | Activity (RPTEC [5]) | Activity (RPTEC [6]) | Activity (RPTEC [7]) [%] | Activity (RPTEC [8]) [%] | Activity (RPTEC [9]) [%] | Activity (RPTEC [10]) [%] | Activity (RPTEC [11]) | Activity (RPTEC [12]) | Activity (RPTEC [13]) | Activity (RPTEC [14]) | Activity (RPTEC [15]) [%] | Activity (RPTEC [16]) | Activity (RPTEC [17]) | further results
 | CC1(C)Oc2ccc(CC3=C(c4ccc(O)cc4)C(=O)OC3=O)cc2C[C@@H]1O | 57 | 52 | inactive | inactive | inactive | Non-Toxic | 47 | 49 | 45 | 48 | inactive | Non-Toxic | inactive | inactive | ~33 | inactive | inactive | 
 | CC1(C)Oc2ccc(CC3=C(c4ccc(O)cc4)C(=O)OC3=O)cc2CC1O (stereo not given) | 67 | 61 | inactive |  | inactive | Non-Toxic | 67 | 61 | 45 | 55 | inactive | Non-Toxic | inactive | inactive | ~35 | inactive |  | Activity [18]: 24%; Activity [19]: ~20%; Activity [20]: ~38%
 | CC1(C)Oc2ccc(CC3=C(c4ccc(O)cc4)C(=O)NC3=O)cc2CC1O (racemic) | 44 | 52 |  |  | inactive | Non-Toxic | 57 | 53 | 45 | 44 | inactive | Non-Toxic | inactive | inactive | ~37 | inactive |  | Activity (RPTEC [21]): Active; Activity (RPTEC [22]): Active; Activity (RPTEC [23]): Active
37.5 | COc1ccc2c(c1)c(CC(=O)O)c(C)n2C(=O)c1ccc(Cl)cc1 [INDOMETHACIN] |  |  |  |  |  |  |  |  |  |  |  |  |  |  |  |  |  | Activity (RPTEC [24]): 59%; Activity (RPTEC [25]): 61%; Activity (RPTEC [26]): 64%; Activity (RPTEC [27]): 45%; Activity (RPTEC [28]): 57%; Activity (RPTEC [29]): inactive; Activity (RPTEC [30]): inactive; Activity [31]: ~38%; Activity (RPTEC [32]): 56%
0.78 | CC1(C)Oc2ccc(CC3=C(c4ccc(O)cc4)C(=O)NC3=O)cc2C[C@@H]1O | 58 | 52 | inactive | inactive | inactive | Non-Toxic | 52 | 52 | 24 | 39 | inactive | Non-Toxic | inactive | inactive | ~18 | inactive | inactive | 
